15 molecules from PubChem BioAssay (NCI) can be followed below.

Among the test systems are SK-MEL-28 melanoma; ACHN renal; HCT-116 colon; MDA-N; UACC-62 melanoma; HCC-2998 colon; BT-549 breast; SF-268 CNS; SW-620 colon.
Common to all, as to assay: NCI tumour cell line growth inhibition, 48 h

The structures appear in SMILES notation.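 All cell lines were grown in 96-well plates and treated with compound for 48 hours. TGI: total growth inhibition.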 Where only a bound is given, the exact number is not on record here.

As to `O=C(O)c1nc2ccc(C(F)(F)F)cc2nc1Nc1ccc(Cl)c(Cl)c1`, the TGI with SK-MEL-28 melanoma was 26.6 µM; in the test with ACHN renal it was 49.7 µM; in the test with HCT-116 colon it was 17.1 µM; in the test with MDA-N it was 25.3 µM; with UACC-62 melanoma, 18 µM; in the test with HCC-2998 colon, 17.6 µM. Besides, the TGI in the test on BT-549 breast was found to be 14.7 µM; in the test with SF-268 CNS it was 21.9 µM; in the test with SW-620 colon, 24.1 µM.

Take `O=[N+]([O-])C(/C(Cl)=C(\Cl)Br)=C(/Cl)SCc1ccccc1`: the TGI in the test with SK-MEL-28 melanoma was found to be 5.98 µM; with ACHN renal, 8.64 µM; with HCT-116 colon it was 7.11 µM; in the test with MDA-N, 4.09 µM; in the test on UACC-62 melanoma, 16.5 µM; with HCC-2998 colon, 25.1 µM. Besides, the TGI was 7.38 µM with BT-549 breast, 9.76 µM in the test on SF-268 CNS and 4.61 µM in the test with SW-620 colon.

As to `CC1(C)CO[P@@](=S)(c2ccccn2)O[C@@H]1c1ccccc1`, the TGI in the test with SK-MEL-28 melanoma, with ACHN renal, with HCT-116 colon, in the test on MDA-N, in the test on UACC-62 melanoma and in the test on HCC-2998 colon was over 100 µM throughout. In addition, the TGI in the test on BT-549 breast, with SF-268 CNS and with SW-620 colon was over 100 µM throughout.

Take `CC(=O)C(C)C(=O)N1C(=O)N(C)C2(C)N(C)C(=O)NC12C` (centres undefined): the TGI with SK-MEL-28 melanoma, with ACHN renal, in the test with HCT-116 colon, with MDA-N, in the test with UACC-62 melanoma and with HCC-2998 colon was over 100 µM throughout. The TGI with BT-549 breast and in the test on SF-268 CNS was over 100 µM throughout.

With `CC1CN=C(Nc2cccc(F)c2)S1` (centres undefined), the TGI in the test with SK-MEL-28 melanoma, in the test on ACHN renal, in the test with HCT-116 colon, in the test with MDA-N, in the test on UACC-62 melanoma and with HCC-2998 colon was over 100 µM each time. In addition, the TGI with BT-549 breast, in the test with SF-268 CNS and in the test with SW-620 colon was over 100 µM throughout.

For the molecule `Nc1[nH]c(=O)nc2snnc12`, the TGI in the test with SK-MEL-28 melanoma is 96.9 µM; in the test on ACHN renal, over 100 µM; in the test with HCT-116 colon, over 100 µM; in the test with MDA-N it was over 100 µM; in the test on UACC-62 melanoma, over 78.3 µM; in the test with HCC-2998 colon, over 100 µM. The TGI is over 100 µM in the test on BT-549 breast, over 51.7 µM in the test with SF-268 CNS and over 100 µM with SW-620 colon.

For `N#Cc1c(Cl)c2cccnc2n2c1nc1ccccc12`, the TGI in the test on SK-MEL-28 melanoma was determined as 9.75 µM; with ACHN renal, 3.2 µM; in the test on HCT-116 colon, 3.19 µM; with MDA-N, 15.7 µM; with UACC-62 melanoma it was 9.1 µM; in the test on HCC-2998 colon, 10.7 µM. Also, the TGI in the test on BT-549 breast turned out to be 9.28 µM; in the test on SF-268 CNS, 8.4 µM; with SW-620 colon, 4.59 µM.

For `O=[N+]([O-])c1ccc(C2ON=C(c3ccccc3)N2C23CC4CC(CC(C4)C2)C3)cc1` (centres undefined), the TGI in the test with SK-MEL-28 melanoma, with ACHN renal, in the test on HCT-116 colon, in the test on MDA-N, in the test with UACC-62 melanoma and in the test on HCC-2998 colon was over 10 µM in each case. For the same molecule, the TGI in the test with BT-549 breast, with SF-268 CNS and with SW-620 colon was over 10 µM each time.

As to `CC(=O)NC1(NC(C)=O)C2CC(C1Cc1ccccc1)C(C)(C)C2C` (centres undefined), the TGI with SK-MEL-28 melanoma, in the test with ACHN renal, in the test on HCT-116 colon, in the test with MDA-N, in the test on UACC-62 melanoma and in the test on HCC-2998 colon was over 100 µM in each case. The TGI with BT-549 breast, in the test on SF-268 CNS and in the test with SW-620 colon was over 100 µM in each case.

Take `COc1cc(/C=C2\C[C@H]3[C@@H]4CCC5=CC(=O)CC[C@]5(C)[C@H]4CC[C@]3(C)C2=O)cc(OC)c1OC`: the TGI was over 100 µM in the test with SK-MEL-28 melanoma; over 100 µM in the test on ACHN renal; over 40.8 µM in the test on HCT-116 colon; over 63.6 µM in the test with MDA-N; over 51.4 µM with UACC-62 melanoma; over 100 µM in the test on HCC-2998 colon. The TGI is over 95.4 µM in the test on BT-549 breast, over 100 µM in the test on SF-268 CNS and over 100 µM in the test with SW-620 colon.

Take `O=C1NC(Nc2ccccc2)=N/C1=C\c1c(Cl)cccc1Cl`: the TGI in the test on SK-MEL-28 melanoma is over 100 µM; with ACHN renal it was over 100 µM; with HCT-116 colon, over 100 µM; in the test on MDA-N, 60.9 µM; in the test on UACC-62 melanoma, over 100 µM; in the test with HCC-2998 colon it was 58.5 µM. Besides, the TGI in the test on BT-549 breast, with SF-268 CNS and in the test on SW-620 colon was over 100 µM in each case.

Regarding `Cc1ccc(O)c(C2=CC3=NNC(=O)C3C(c3cccc(Cl)c3)C2)c1` (centres undefined), the TGI in the test on SK-MEL-28 melanoma is over 100 µM; in the test on ACHN renal, over 100 µM; in the test on HCT-116 colon, over 100 µM; in the test on MDA-N, 92.2 µM; with UACC-62 melanoma it was 86.6 µM; with HCC-2998 colon, 44.5 µM. The TGI was 78.7 µM in the test with BT-549 breast, over 100 µM in the test on SF-268 CNS and over 100 µM with SW-620 colon.

On to `NC(=O)CSc1c2cc(O)ccc2nc2ccc(O)cc12`, for which the TGI in the test on SK-MEL-28 melanoma, in the test on ACHN renal, in the test on HCT-116 colon, in the test with MDA-N, in the test on UACC-62 melanoma and in the test with HCC-2998 colon was over 10 µM throughout. Moreover, the TGI with BT-549 breast, in the test with SF-268 CNS and with SW-620 colon was over 10 µM throughout.

For the molecule `Oc1ccc(/C=C/c2cccc(/C=C/c3ccc(O)c(O)c3)n2)cc1O`, the TGI in the test with SK-MEL-28 melanoma is 38.3 µM; in the test with ACHN renal, 18.7 µM; in the test with HCT-116 colon, 20.1 µM; in the test on MDA-N, 20.5 µM; with UACC-62 melanoma, 18.6 µM; with HCC-2998 colon, 33.1 µM. For the same molecule, the results for the TGI in the test with BT-549 breast, in the test with SF-268 CNS and in the test with SW-620 colon were over 100 µM, 23.3 µM and over 100 µM, respectively.

Turning to `CC(=O)c1cccc(NC(=O)C(=O)c2c(O)c3ccccc3oc2=O)c1`, the TGI in the test with SK-MEL-28 melanoma, in the test on ACHN renal, in the test with HCT-116 colon, in the test on MDA-N, in the test with UACC-62 melanoma and in the test on HCC-2998 colon was over 100 µM throughout. The TGI in the test with BT-549 breast, with SF-268 CNS and with SW-620 colon was over 100 µM throughout.
